Results as given in ChEMBL document CHEMBL4382229, “Benzofuran derivatives and their anti-tubercular, anti-bacterial activities” (Eur J Med Chem, 2019).
≈ marks a conversion by molar mass, not a printed value.

How the values were obtained:
Escherichia coli [1] = assay: Antibacterial activity against Escherichia coli by broth dilution method; format: functional
Escherichia coli [2] = assay: Potency index, ratio of ciprofloxacin MIC to test compound MIC for Escherichia coli; format: functional
Bacillus subtilis [3] = assay: Potency index, ratio of ciprofloxacin MIC to test compound MIC for Bacillus subtilis; format: functional
Staphylococcus aureus [4] = assay: Potency index, ratio of ciprofloxacin MIC to test compound MIC for Staphylococcus aureus; format: functional
Staphylococcus aureus [5] = assay: Antibacterial activity against Staphylococcus aureus by broth dilution method; format: functional
Bacillus subtilis [6] = assay: Antibacterial activity against Bacillus subtilis by broth dilution method; format: functional
Pseudomonas aeruginosa [7] = assay: Antibacterial activity against Pseudomonas aeruginosa by broth dilution method; format: functional
[8] = tested on: Mycobacterium tuberculosis; assay: Antitubercular activity against Mycobacterium tuberculosis Erdman infected in BALB/c mouse assessed as reduction in bacterial load in lungs at 25 mg/kg, po administered once daily via gavage starting from 27 days post infection for 5 consecutive days per week for 4 weeks; format: functional
[9] = tested on: Mycobacterium tuberculosis; assay: Antitubercular activity against Mycobacterium tuberculosis H37Rv infected in BALB/c mouse assessed as reduction in bacterial load in lungs at 10 mg/kg, po administered once daily via gavage for 5 consecutive days per week for 2 weeks; format: functional
[10] = tested on: Mycobacterium tuberculosis; assay: Antitubercular activity against Mycobacterium tuberculosis Erdman infected in BALB/c mouse assessed as reduction in bacterial load in spleen at 25 mg/kg, po administered once daily via gavage starting from 27 days post infection for 5 consecutive days per week for 4 weeks; format: functional
Proteus vulgaris [11] = assay: Potency index, ratio of norfloxacin MIC to test compound MIC for Proteus vulgaris; format: functional
Proteus vulgaris [12] = assay: Antibacterial activity against Proteus vulgaris after 24 hrs; format: functional
Staphylococcus aureus [13] = assay: Antibacterial activity against Staphylococcus aureus ATCC 6538 after 24 hrs by broth dilution method; format: functional
Proteus vulgaris [14] = assay: Antibacterial activity against Proteus vulgaris […] after 24 hrs by broth dilution method; format: functional
Bacillus spizizenii [15] = assay: Antibacterial activity against Bacillus subtilis ATCC 6633 after 24 hrs by broth dilution method; format: functional
Escherichia coli [16] = assay: Antibacterial activity against Escherichia coli ATCC 11229 after 24 hrs by broth dilution method; format: functional
[17] = tested on: Mycobacterium tuberculosis; assay: Antitubercular activity against Mycobacterium tuberculosis Erdman infected in BALB/c mouse assessed as reduction in bacterial load in lungs at 300 mg/kg, po administered once daily via gavage starting from 27 days post infection for 5 consecutive days per week for 4 weeks; format: functional
[18] = tested on: Mycobacterium tuberculosis; assay: Antitubercular activity against Mycobacterium tuberculosis Erdman infected in BALB/c mouse assessed as reduction in bacterial load in spleen at 300 mg/kg, po administered once daily via gavage starting from 27 days post infection for 5 consecutive days per week for 4 weeks; format: functional
[19] = tested on: Mycobacterium tuberculosis; assay: Antitubercular activity against Mycobacterium tuberculosis H37Rv infected in BALB/c mouse assessed as reduction in bacterial load in lungs at 200 mg/kg, po administered once daily via gavage for 5 consecutive days per week for 2 weeks; format: functional
[20] = tested on: Mycobacterium tuberculosis; assay: microbe, parasite or virus in culture; conditions: MC2 7000, 144 h
Description: Antimycobacterial activity against Mycobacterium tuberculosis MC2 7000 after 6 days by alamar blue assay

Staphylococcus aureus [21] = assay: Antibacterial activity against Staphylococcus aureus NCIM 2079 assessed as zone of inhibition at 1 ug/ml after 24 hrs by agar diffusion method; format: functional; conditions: NCIM 2079, 24 h, read-out: IZ
Bacillus subtilis [22] = assay: Antibacterial activity against Bacillus subtilis NCIM 2439 assessed as zone of inhibition at 1 ug/ml after 24 hrs by agar diffusion method; format: functional; conditions: NCIM 2439, 24 h, read-out: IZ
Staphylococcus aureus [23] = assay: Antibacterial activity against Staphylococcus aureus assessed as diameter of inhibition zone at 250 ug/ml after 24 hrs by disc diffusion method; format: functional; conditions: read-out: DIZ
Escherichia coli [24] = assay: Antibacterial activity against Escherichia coli ATCC 25922 assessed as diameter of inhibition zone at 5 ug/ml after 24 hrs by agar disc diffusion method; format: functional; conditions: ATCC 25922, 24 h, read-out: IZ
Escherichia coli [25] = assay: Antibacterial activity against Escherichia coli assessed as diameter of inhibition zone at 250 ug/ml after 24 hrs by disc diffusion method; format: functional; conditions: read-out: DIZ
Pseudomonas aeruginosa [26] = assay: Antibacterial activity against Pseudomonas aeruginosa NCIB 8650 assessed as zone of inhibition at 1 ug/ml after 24 hrs by agar diffusion method; format: functional; conditions: NCIB 8650, 24 h, read-out: IZ
Escherichia coli [27] = assay: Antibacterial activity against Escherichia coli NCIM 2064 assessed as zone of inhibition at 1 ug/ml after 24 hrs by agar diffusion method; format: functional; conditions: NCIM 2064, 24 h, read-out: IZ
Pseudomonas aeruginosa [28] = assay: Antibacterial activity against Pseudomonas aeruginosa ATCC 27953 assessed as diameter of inhibition zone at 5 ug/ml after 24 hrs by agar disc diffusion method; format: functional; conditions: ATCC 27953, 24 h, read-out: IZ
Staphylococcus aureus [29] = assay: Antibacterial activity against Staphylococcus aureus ATCC 29213 after 24 hrs by broth dilution method; format: functional
Bacillus spizizenii [30] = assay: Antibacterial activity against Bacillus subtilis ATCC 6633 after 24 hrs; format: functional; conditions: ATCC 6633, 24 h
Staphylococcus aureus [31] = assay: Antibacterial activity against Staphylococcus aureus ATCC 25923 after 24 hrs; format: functional; conditions: ATCC 25923, 24 h
Escherichia coli [32] = assay: Antibacterial activity against Escherichia coli ATCC 25922 after 24 hrs; format: functional; conditions: ATCC 25922, 24 h
Bacillus subtilis [33] = assay: Potency index, ratio of streptomycin MIC to test compound MIC for Bacillus subtilis MTCC 1134; format: functional
Pseudomonas aeruginosa [34] = assay: Antibacterial activity against Pseudomonas aeruginosa MTCC 1034 after 24 hrs by broth dilution method; format: functional; conditions: MTCC 1034, 24 h
Pseudomonas aeruginosa [35] = assay: Potency index, ratio of streptomycin MIC to test compound MIC for Pseudomonas aeruginosa MTCC 1034; format: functional
Bacillus subtilis [36] = assay: Antibacterial activity against Bacillus subtilis MTCC 1134 after 24 hrs by broth dilution method; format: functional; conditions: MTCC 1134, 24 h
Escherichia coli [37] = assay: Antibacterial activity against Escherichia coli MTCC 1559 after 24 hrs by broth dilution method; format: functional; conditions: MTCC 1559, 24 h
Escherichia coli [38] = assay: Potency index, ratio of streptomycin MIC to test compound MIC for Escherichia coli MTCC 1559; format: functional
Escherichia coli [39] = assay: Antibacterial activity against Escherichia coli assessed as zone of inhibition at 1 mg/ml after 32 hrs by agar-well diffusion method; format: functional; conditions: read-out: IZ
Staphylococcus aureus [40] = assay: Antibacterial activity against Staphylococcus aureus assessed as zone of inhibition at 50 ug/ml after 3 days by filter paper disc method; format: functional; conditions: 72 h, read-out: IZ
Bacillus subtilis [41] = assay: Antibacterial activity against Bacillus subtilis assessed as zone of inhibition at 50 ug/ml after 3 days by filter paper disc method; format: functional; conditions: 72 h, read-out: IZ
Pseudomonas aeruginosa [42] = assay: Antibacterial activity against Pseudomonas aeruginosa assessed as zone of inhibition at 1 mg/ml after 32 hrs by agar-well diffusion method; format: functional; conditions: read-out: IZ
Escherichia coli [43] = assay: Antibacterial activity against Escherichia coli assessed as zone of inhibition at 50 ug/ml after 3 days by filter paper disc method; format: functional; conditions: 72 h, read-out: IZ
Staphylococcus aureus [44] = assay: Antibacterial activity against Staphylococcus aureus assessed as zone of inhibition at 1 mg/ml after 32 hrs by agar-well diffusion method; format: functional; conditions: read-out: IZ
Klebsiella pneumoniae = assay: Antibacterial activity against Klebsiella pneumoniae assessed as zone of inhibition at 1 mg/ml after 32 hrs by agar-well diffusion method; format: functional; conditions: read-out: IZ
Pseudomonas aeruginosa [45] = assay: Antibacterial activity against Pseudomonas aeruginosa assessed as zone of inhibition at 50 ug/ml after 3 days by filter paper disc method; format: functional; conditions: 72 h, read-out: IZ

## Cc1ccc2occ(-c3cc4ccccc4oc3=O)c2c1
Escherichia coli [1]
  MIC: 0.2 µg/mL (≈ 0.724 µM)
Escherichia coli [2]
  Ratio: >=5
Bacillus subtilis [3]
  Ratio: >=5
Staphylococcus aureus [4]
  Ratio: >=5
Staphylococcus aureus [5]
  MIC: 0.2 µg/mL (≈ 0.724 µM)
Bacillus subtilis [6]
  MIC: 0.4 µg/mL (≈ 1.45 µM)
Pseudomonas aeruginosa [7]
  MIC: 6.25 to 100 µg/mL (≈ 22.6 to 362 µM)

## NNC(=O)c1ccncc1 [ISONIAZID]
[8]
  Activity: 1.1 log10CFU
[9]
  Activity: 6.7 log10CFU
[10]
  Activity: 2.5 log10CFU

## O=C1Nc2c(cccc2[N+](=O)[O-])/C1=N/NC(=O)c1cc2ccccc2o1
Proteus vulgaris [11]
  Ratio: 2
Proteus vulgaris [12]
  MIC: 31.2 µg/mL (≈ 89.2 µM)

## O=C(c1ccc(Br)cc1)c1oc2ccc(Br)cc2c1/C=C/c1c[nH]c2ccccc12
Staphylococcus aureus [13]; ATCC 6538, 24 h
  MIC: 3.12 to 6.25 µg/mL (≈ 6 to 12 µM)
Proteus vulgaris [14]
  MIC: 3.12 to 6.25 µg/mL (≈ 6 to 12 µM)
Bacillus spizizenii [15]; ATCC 6633, 24 h
  MIC: 3.12 to 6.25 µg/mL (≈ 6 to 12 µM)
Escherichia coli [16]; ATCC 11229, 24 h
  MIC: 3.12 to 6.25 µg/mL (≈ 6 to 12 µM)

## O=C1Nc2c(O)cccc2/C1=N/NC(=O)c1cc2ccccc2o1
Proteus vulgaris [11]
  Ratio: 2
Proteus vulgaris [12]
  MIC: 31.2 µg/mL (≈ 97.3 µM)

## CNC(=O)c1c(-c2ccc(O)cc2)oc2ccc(O)c(CN3CCCCC3)c12
[17]
  Activity: 0.9 log10CFU
[18]
  Activity: 2.2 log10CFU
[19]
  Activity: 6.8 log10CFU
[20]
  MIC: 0.09 µM (≈ 0.0342 µg/mL)

## O=C(N[C@H](CO)[C@H](O)c1ccc([N+](=O)[O-])cc1)C(Cl)Cl [CHLORAMPHENICOL]
Staphylococcus aureus [21]
  zone of inhibition at 1 µg/mL: 21 to 32 mm
Bacillus subtilis [22]
  zone of inhibition at 1 µg/mL: 21 to 32 mm
Staphylococcus aureus [23]
  zone of inhibition at 250 µg/mL: 27 mm
Escherichia coli [24]
  zone of inhibition at 5 µg/mL: 21 to 32 mm
Escherichia coli [25]
  zone of inhibition at 250 µg/mL: 17 mm
Pseudomonas aeruginosa [26]
  zone of inhibition at 1 µg/mL: 21 to 32 mm
Escherichia coli [27]
  zone of inhibition at 1 µg/mL: 21 to 32 mm
Pseudomonas aeruginosa [28]
  zone of inhibition at 5 µg/mL: 21 to 32 mm

## GENTAMICIN
Staphylococcus aureus [13]
  MIC: 1.62 to 3.12 µg/mL
Proteus vulgaris [14]
  MIC: 1.62 to 3.12 µg/mL
Bacillus spizizenii [15]
  MIC: 1.62 to 3.12 µg/mL
Escherichia coli [16]
  MIC: 1.62 to 3.12 µg/mL
Staphylococcus aureus [29]
  MIC: 1.6 to 3.1 µg/mL

## O=C1Nc2ccccc2/C1=N/NC(=O)c1cc2ccccc2o1
Proteus vulgaris [12]
  MIC: 250 to 500 µg/mL (≈ 819 to 1640 µM)
Bacillus spizizenii [30]
  MIC: 250 to 500 µg/mL (≈ 819 to 1640 µM)
Staphylococcus aureus [31]
  MIC: 250 to 500 µg/mL (≈ 819 to 1640 µM)
Escherichia coli [32]
  MIC: 250 to 500 µg/mL (≈ 819 to 1640 µM)

## Cc1ccc(-c2cc(-c3cc4ccccc4o3)nc(N)n2)s1
Bacillus subtilis [33]
  Ratio: >3
Pseudomonas aeruginosa [34]
  MIC: 4.32 to 6.32 µg/mL (≈ 14.1 to 20.6 µM)
Pseudomonas aeruginosa [35]
  Ratio: >3
Bacillus subtilis [36]
  MIC: 4.32 to 6.32 µg/mL (≈ 14.1 to 20.6 µM)
Escherichia coli [37]
  MIC: 4.32 to 6.32 µg/mL (≈ 14.1 to 20.6 µM)
Escherichia coli [38]
  Ratio: >3

## CC1(C)S[C@@H]2[C@H](NC(=O)[C@H](N)c3ccccc3)C(=O)N2[C@H]1C(=O)O [AMPICILLIN]
Proteus vulgaris [12]
  MIC: 3.9 µg/mL (≈ 11.2 µM)
Bacillus spizizenii [30]
  MIC: 3.9 µg/mL (≈ 11.2 µM)
Escherichia coli [39]
  zone of inhibition at 1000 µg/mL: 20 to 28 mm
Staphylococcus aureus [31]
  MIC: 0.48 µg/mL (≈ 1.37 µM)
Staphylococcus aureus [40]
  zone of inhibition at 50 µg/mL: 10 to 30 mm
Bacillus subtilis [41]
  zone of inhibition at 50 µg/mL: 10 to 30 mm
Escherichia coli [32]
  MIC: 3.9 µg/mL (≈ 11.2 µM)
Pseudomonas aeruginosa [42]
  zone of inhibition at 1000 µg/mL: 20 to 28 mm
Escherichia coli [43]
  zone of inhibition at 50 µg/mL: 10 to 30 mm
Staphylococcus aureus [44]
  zone of inhibition at 1000 µg/mL: 20 to 28 mm
Klebsiella pneumoniae
  zone of inhibition at 1000 µg/mL: 20 to 28 mm
Pseudomonas aeruginosa [45]
  zone of inhibition at 50 µg/mL: 10 to 30 mm

## O=C1/C(=C\c2cn(-c3ccccc3)nc2-c2cccs2)Oc2cc(Cl)ccc21
Staphylococcus aureus [40]
  zone of inhibition at 50 µg/mL: 13 to 33 mm
Bacillus subtilis [41]
  zone of inhibition at 50 µg/mL: 13 to 33 mm
Escherichia coli [43]
  zone of inhibition at 50 µg/mL: 13 to 33 mm
Pseudomonas aeruginosa [45]
  zone of inhibition at 50 µg/mL: 13 to 33 mm
